The subject of experiment [1] is TNF-α. In words: LPS-induced TNF-α release in human PBMC. It counts as cell-based. The conditions noted are these: 10 μM compound with LPS 25 μg/ml, 24 h. The procedure:
(§1) Approximately 450 ml of blood was obtained from healthy human volunteers and diluted with RPMI 1640 culture medium. A Ficoll gradient (MSL; Eurobio, les Ulis, France) was used to isolate human peripheral blood mononuclear leukocytes (PBMC). The volume ratio of blood, RPMI 1640 culture medium, and MSL was 2:4:1. PBMC were obtained by centrifuging the diluted blood at 500 g at 15° C. for 20 min and washed once with RPMI 1640. The cell pellets were resuspended at a final concentration of 6×10^6 cells/ml of the same medium supplemented with 5% heat-inactivated normal human serum (a pool of sera from healthy volunteers) and antibiotics (penicillin 100 UI/ml and streptomycin 100 μg/ml). Aliquots of 500 μl of the cell suspension were dispensed into each well of a 24-well plate and incubated at 37° C. in a 5% CO2-95% air incubator in a humidified atmosphere. To wells were added lipopolysaccharide (LPS, 25 μg/ml) from smooth E. Coli 0111:B4 alone or LPS and Compound 1 (10 μM) together. After 24 h, the supernatants were collected, centrifuged at 400 g for 10 min at 15° C. and stored at −20° C. Cytokines were assayed using commercial kits manufactured by R & D Systems (Abingdon, UK). The concentrations of the cytokines were determined using an internal standard according to the manufacturer's instructions.

The test system of experiment [2] is interleukin 1β. Description: LPS-induced interleukin 1β release in human PBMC. It counts as cell-based. The following applies: 10 μM compound with LPS 25 μg/ml, 24 h. How it is done: as §1
Experiment [3] concerns interleukin 8. In words: LPS-induced interleukin 8 release in human PBMC. It counts as cell-based. The following applies: 10 μM compound with LPS 25 μg/ml, 24 h. How it is done:
as §1

The test system of experiment [4] is interleukin-2. In words: LPS-induced interleukin-2 release in human PBMC. It counts as cell-based. The conditions noted are these: 10 μM compound with LPS 25 μg/ml, 24 h. How it is done:
as §1

In experiment [5] the test system is interferon-γ. In words: LPS-induced interferon-γ release in human PBMC. It counts as cell-based. The conditions noted are these: 10 μM compound with LPS 25 μg/ml, 24 h. How it is done:
as §1

Experiment [6] relates to interleukin-4. In words: LPS-induced interleukin-4 release in human PBMC. It counts as cell-based. The following applies: 10 μM compound with LPS 25 μg/ml, 24 h. How it is done:
as §1

Experiment [7] has as its system interleukin-10. In words: LPS-induced interleukin-10 release in human PBMC. It counts as cell-based. The following applies: 10 μM compound with LPS 25 μg/ml, 24 h. How it is done:
as §1

In experiment [8] the test system is NF-κB. In words: NF-κB DNA binding activity in tissue nuclear extracts of LPS-treated mice (EMSA, ELISA-based Trans-AM p65 kit). It counts as in vivo. The following applies: ICR mice, LPS 60 mg/kg i.p., compound 10 mg/kg orally in 0.5% carboxymethyl cellulose; lung, spleen, kidney extracts. How it is done:
Mice (25-30 g, ICR strain) were injected intraperitoneally with LPS (60 mg/kg). Most of them were orally treated with Compound 1 (10 mg/kg) in 0.5% carboxymethyl cellulose, and the rest (control mice) were orally treated with vehicle. The control mice died within 27 h after the LPS administration. The mice were euthanatized with intraperitoneal administration of pentobarbital at various time intervals after the LPS administration. Nuclear extracts of lung, spleen, and kidney tissues were prepared by a standard method. NF-κB DNA binding activity was assessed by an electrophoretic mobility shift assay according to a procedure described in Pan et al., J Biomed Sci. 2002, 9: 622-630. […] The sample was then charged to native 5% polyacrylamide gels and analyzed by autoradiography. […] NF-κB DNA binding activity was also assessed with ELISA-based Trans-AM NF-κB p65 transcription factor assay kits (Active Motif Europe, […], Belgium) according to the manufacturer's instructions. […] Specificity of NF-κB activation was determined by competition experiments using NF-κB wild-type and mutant consensus oligonucleotides that were provided with the kit.
For orientation: A gel shift assay detects complexes by their altered migration in electrophoresis.

The structures appear in SMILES notation.

As to `OCc1ccc(-c2nn(Cc3ccccc3)c3ccccc23)o1` [Compound 1, 3-(5′-hydroxymethyl-2′-furyl)-1-benzyl-indazol], the inhibition (in general, how much of the control response was suppressed) at 10 µM was over 80% in experiment [1]; over 80% in experiment [2]; over 80% in experiment [3]; over 30% in experiment [4]; over 30% in experiment [5]; under 10% in experiment [6]. In experiment [7], this molecule registered an inhibition at 10 µM of under 10%. Further, the “NF-κB/DNA complex level induced by LPS” value in experiment [8] was “inhibited the increase of the NF-κB/DNA complex level induced by LPS”.
